{"source": "patent US11111217B2", "about": "“2-arylbenzimidazoles as Ppargc1a activators for treating neurodegenerative diseases” (The Board of Trustees of the Leland Stanford Junior …, priority 2018, dated 2021)", "data": [{"tested_on": "TNF-α production by BV2 cells or PBMC", "assay": "Cellular assay to measure TNF-α inhibition (LPS-stimulated, ELISA)", "assay_type": "cell-based, murine (BV2) or human (PBMC)", "conditions": "BV2 cells or PBMC (not specified), LPS 100 ng/ml over 24 hours, relative to DMSO vehicle; compound concentration not stated", "description": "Oxidative metabolism exerts an anti-inflammatory effect on myeloid cell phenotype (O'Neill L A, Front Immunol. 2014) and Ppargc1a can promote this energy metabolic pathway (Spiegelman BM, Novartis Found Symp. 2007). Thus, pharmacological activation of Ppargc1a would be expected to inhibit the inflammatory response of myeloid cells. This phenomenon can be measured in cultures by a TNF-α inhibition assay.\nCellular Assay Protocol to Measure TNF-α Inhibition\nThe murine myeloid cell line BV2 or human peripheral blood mononuclear cells (PBMC) are cultured in RPMI 1640 media (Cat #11875119, Gibco) supplemented with 10% fetal bovine serum and 1% L-glutamine 1% penicillin. These cells are then stimulated with 100 ng/ml of lipopolysaccharide (LPS, O111:B34, Cat # L2630, Sigma) over 24 hours. LPS stimulation results in the secretion of the inflammatory cytokine TNF-α by BV2 cells or PBMC, which can be quantified by ELISA in culture supernatant samples per manufacturer's protocol (Cat #558273 for BV2 and Cat #558299 for PBMC, BD Biosciences). To determine whether exampl compounds 1-78 inhibit TNF-α production by BV2 cells or PBMC, the cells were cultured in the presence of the compounds at different concentrations, and fold reduction in TNF-α production relative to TNF-α production by the same cells cultured in the presence of dimethylsulfoxide (as vehicle control) was determined.", "values": [{"smiles": "CC(C)(C)c1ccc(-c2nc3ccccc3s2)cc1", "note": "[Example 3, 2-(4-tert-Butylphenyl)-1,3-benzothiazole]", "TNF α Inhibition": "C (C = <50% inh.)"}, {"smiles": "CC(C)(C)c1ccc(-c2nc3ccccc3o2)cc1", "note": "[Example 4, 2-(4-tert-Butylphenyl)-1,3-benzoxazole]", "TNF α Inhibition": "B (B = 50-80% inh.)"}, {"smiles": "Cn1c(-c2ccc(C(C)(C)C)cc2)nc2ccccc21", "note": "[Example 6, 2-(4-tert-Butylphenyl)-1-methyl-benzo[d]imidazole]", "TNF α Inhibition": "B (B = 50-80% inh.)"}, {"smiles": "Clc1ccccc1-c1nc2ccccc2[nH]1", "note": "[Example 7, 2-(2-Chlorophenyl)-1H-benzo[d]imidazole]", "TNF α Inhibition": "C (C = <50% inh.)"}, {"smiles": "Clc1ccc(-c2nc3ccccc3[nH]2)cc1", "note": "[Example 8, 2-(4-Chlorophenyl)-1H-benzo[d]imidazole]", "TNF α Inhibition": "C (C = <50% inh.)"}, {"smiles": "Cc1cccc(-c2nc3ccccc3[nH]2)c1", "note": "[Example 9, 2-(3-Methylphenyl)-1H-benzo[d]imidazole]", "TNF α Inhibition": "C (C = <50% inh.)"}, {"smiles": "CC(C)(C)c1ccc(-c2nc3ccccc3[nH]2)cn1", "note": "[Example 10, 2-(6-tert-Butyl-3-pyridyl)-1H-benzo[d]imidazole]", "TNF α Inhibition": "A (A = >80% inh.)"}, {"smiles": "Cc1ccc(-c2nc3ccccc3[nH]2)cc1", "note": "[Example 11, 2-(4-Methylphenyl)-1H-benzo[d]imidazole]", "TNF α Inhibition": "A (A = >80% inh.)"}, {"smiles": "Cc1ccccc1-c1nc2ccccc2[nH]1", "note": "[Example 12, 2-(2-Methylphenyl)-1H-benzo[d]imidazole]", "TNF α Inhibition": "C (C = <50% inh.)"}, {"smiles": "CC(C)(C)c1ccc(-c2nc3cnccc3[nH]2)cn1", "note": "[Example 13, 2-(6-tert-Butyl-3-pyridyl)-1H-imidazo[4,5-c]-pyridine]", "TNF α Inhibition": "B (B = 50-80% inh.)"}, {"smiles": "c1ccc(-c2nc3ccccc3[nH]2)cc1", "note": "[Example 14, 2-(Phenyl)-1H-benzo[d]imidazole]", "TNF α Inhibition": "C (C = <50% inh.)"}, {"smiles": "FC(F)(F)c1ccc(-c2nc3ccccc3[nH]2)cc1", "note": "[Example 15, 2-(4-Trifluoro-methylphenyl)-1H-benzo[d]imidazole]", "TNF α Inhibition": "C (C = <50% inh.)"}, {"smiles": "Oc1ccccc1-c1nc2ccccc2[nH]1", "note": "[Example 16, 2-(2-Hydroxy-phenyl)-1H-benzo[d]imidazole]", "TNF α Inhibition": "C (C = <50% inh.)"}, {"smiles": "Fc1ccccc1-c1nc2ccccc2[nH]1", "note": "[Example 17, 2-(2-Fluorophenyl)-1H-benzo[d]imidazole]", "TNF α Inhibition": "C (C = <50% inh.)"}, {"smiles": "N#Cc1ccc(-c2nc3ccccc3[nH]2)cc1", "note": "[Example 18, 2-(4-Cyanophenyl)-1H-benzo[d]imidazole]", "TNF α Inhibition": "C (C = <50% inh.)"}, {"smiles": "Brc1cccc(-c2nc3ccccc3[nH]2)c1", "note": "[Example 19, 2-(3-Bromophenyl)-1H-benzo[d]imidazole]", "TNF α Inhibition": "C (C = <50% inh.)"}, {"smiles": "COc1cccc(-c2nc3ccccc3[nH]2)c1", "note": "[Example 20, 2-(3-Methoxy-phenyl)-1H-benzo[d]imidazole]", "TNF α Inhibition": "C (C = <50% inh.)"}, {"smiles": "FC(F)(F)c1ccccc1-c1nc2ccccc2[nH]1", "note": "[Example 22, 2-(2-Trifluoro-methylphenyl)-1H-benzo[d]imidazole]", "TNF α Inhibition": "C (C = <50% inh.)"}, {"smiles": "Brc1ccccc1-c1nc2ccccc2[nH]1", "note": "[Example 23, 2-(2-Bromophenyl)-1H-benzo[d]imidazole]", "TNF α Inhibition": "B (B = 50-80% inh.)"}, {"smiles": "Oc1ccc(-c2nc3ccccc3[nH]2)cc1", "note": "[Example 24, 2-(4-Hydroxy-phenyl)-1H-benzo[d]imidazole]", "TNF α Inhibition": "A (A = >80% inh.)"}, {"smiles": "COc1ccccc1-c1nc2ccccc2[nH]1", "note": "[Example 25, 2-(2-Methoxy-phenyl)-1H-benzo[d]imidazole]", "TNF α Inhibition": "C (C = <50% inh.)"}, {"smiles": "Brc1ccc(-c2nc3ccccc3[nH]2)cc1", "note": "[Example 26, 2-(4-Bromophenyl)-1H-benzo[d]imidazole]", "TNF α Inhibition": "C (C = <50% inh.)"}, {"smiles": "Clc1cccc(-c2nc3ccccc3[nH]2)c1", "note": "[Example 27, 2-(3-Chlorophenyl)-1H-benzo[d]imidazole]", "TNF α Inhibition": "C (C = <50% inh.)"}, {"smiles": "CCc1ccc(-c2nc3ccccc3[nH]2)cc1", "note": "[Example 28, 2-(4-Ethylphenyl)-1H-benzo[d]imidazole]", "TNF α Inhibition": "C (C = <50% inh.)"}, {"smiles": "COc1ccc2[nH]c(-c3ccc(C(C)(C)C)cc3)nc2c1", "note": "[Example 29, 2-(4-tert-Butylphenyl)-5-methoxy-1H-benzo[d]imidazole]", "TNF α Inhibition": "A (A = >80% inh.)"}, {"smiles": "N#Cc1cccc(-c2nc3ccccc3[nH]2)c1", "note": "[Example 30, 2-(3-Cyanophenyl)-1H-benzo[d]imidazole]", "TNF α Inhibition": "C (C = <50% inh.)"}, {"smiles": "CC(C)(C)c1ccc(-c2nc3cc(C#N)ccc3[nH]2)cc1", "note": "[Example 31, 2-(4-tert-Butylphenyl)-1H-benzo[d]imidazole-5-carbonitrile]", "TNF α Inhibition": "A (A = >80% inh.)"}, {"smiles": "CC(C)(C)c1ccc(-c2nc3cc(O)ccc3[nH]2)cc1", "note": "[Example 32, 2-(4-tert-Butylphenyl)-1H-benzo[d]imidazol-5-ol]", "TNF α Inhibition": "A (A = >80% inh.)"}, {"smiles": "CC(C)c1ccc(-c2nc3ccccc3[nH]2)cc1", "note": "[Example 33, 2-(4-Isopropylphenyl)-1H-benzo[d]imidazole]", "TNF α Inhibition": "C (C = <50% inh.)"}, {"smiles": "Fc1ccc(-c2nc3ccccc3[nH]2)cc1", "note": "[Example 34, 2-(4-Fluorophenyl)-1H-benzo[d]imidazole]", "TNF α Inhibition": "C (C = <50% inh.)"}, {"smiles": "CC(C)(C)c1ccc(-c2nc3ncccc3[nH]2)cc1", "note": "[Example 35, 2-(4-tert-Butylphenyl)-1H-imidazo[4,5-b]pyridine]", "TNF α Inhibition": "C (C = <50% inh.)"}, {"smiles": "Fc1cccc(-c2nc3ccccc3[nH]2)c1", "note": "[Example 36, 2-(3-Fluorophenyl)-1H-benzo[d]imidazole]", "TNF α Inhibition": "C (C = <50% inh.)"}, {"smiles": "CC(C)(C)c1ccc(-c2nc3cc(Cl)ccc3[nH]2)cc1", "note": "[Example 37, 2-(4-tert-Butylphenyl)-5-chloro-1H-benzo[d]imidazole]", "TNF α Inhibition": "A (A = >80% inh.)"}, {"smiles": "Cc1ccc2[nH]c(-c3ccc(C(C)(C)C)cc3)nc2c1", "note": "[Example 38, 2-(4-tert-Butylphenyl)-5-methyl-1H-benzo[d]imidazole]", "TNF α Inhibition": "A (A = >80% inh.)"}, {"smiles": "FC(F)(F)c1cccc(-c2nc3ccccc3[nH]2)c1", "note": "[Example 39, 2-(3-Trifluoromethylphenyl)-1H-benzo[d]imidazole]", "TNF α Inhibition": "B (B = 50-80% inh.)"}, {"smiles": "Oc1cccc(-c2nc3ccccc3[nH]2)c1", "note": "[Example 40, 2-(3-Hydroxyphenyl)-1H-benzo[d]imidazole]", "TNF α Inhibition": "C (C = <50% inh.)"}, {"smiles": "CC(C)(C)c1ccc(-c2nc3cc(F)ccc3[nH]2)cc1", "note": "[Example 41, 2-(4-tert-Butylphenyl)-5-fluoro-1H-benzo[d]imidazole]", "TNF α Inhibition": "C (C = <50% inh.)"}, {"smiles": "CC(C)(C)c1ccc(-c2nc3cc(Br)ccc3[nH]2)cc1", "note": "[Example 43, 2-(4-tert-Butylphenyl)-5-bromo-1H-benzo[d]imidazole]", "TNF α Inhibition": "A (A = >80% inh.)"}, {"smiles": "Cc1cccc2[nH]c(-c3ccc(C(C)(C)C)cc3)nc12", "note": "[Example 45, 2-(4-tert-Butylphenyl)-4-methyl-1H-benzo[d]imidazole]", "TNF α Inhibition": "A (A = >80% inh.)"}, {"smiles": "CC(C)(C)c1ccc(-c2nc3c(Cl)cccc3[nH]2)cc1", "note": "[Example 46, 2-(4-tert-Butylphenyl)-4-chloro-1H-benzo[d]imidazole]", "TNF α Inhibition": "A (A = >80% inh.)"}, {"smiles": "Nc1cccc(-c2nc3ccccc3[nH]2)c1", "note": "[Example 47, 2-(3-Aminophenyl)-1H-benzo[d]imidazole]", "TNF α Inhibition": "C (C = <50% inh.)"}]}]}
